Measurements taken from patent US20240025893A1, “PYRIMIDINE-AND NITROGEN-CONTAINING BICYCLIC COMPOUND” (Asahi Kasei Pharma Corporation, priority 2020, published 2024).

Key:
[1] = test system: LPS-stimulated TNFα production in THP-1 cells; experiment: LPS-stimulated TNFα production inhibition test using human acute monocytic leukemia cell strain THP-1; type: cell-based; settings: LPS 2.5 ng/mL, average values
Description: By the THP-1 assay, influence of a test compound on the TNFα production induced by LPS stimulation can be evaluated. The THP-1 cells (ATCC, Cat. TIB-202) were inoculated on a 96-well plate at a density of 1×10^5 cells/160 μL/well, a test compound was added in a volume of 20 μL, and the plate was incubated at 37° C. for 1 hour in a 5% CO2 incubator. Then, LPS in a volume of 20 μL (final concentration 2.5 ng/mL, Sigma, Cat. L2630) was added, and the plate was further incubated for 4 hours. After the incubation, the plate was centrifuged, and 100 μL of the supernatant was taken from each well, and used for evaluation of the amount of TNFα using HTRF (Cisbio, Cat. 62TNFPEB). In the measurement of the amount of TNFα, the supernatant was diluted twice with the medium, and then added to wells of a 384-well plate in a volume of 10 μL, then anti-TNFα-cryptate (5 μL), and anti-TNFα-XL665 (5 μL) were added, and the plate was left standing overnight. The fluorescence intensity ratio for the wavelengths of 620 and 665 nm (620 nm/665 nm) was measured with a microplate reader, and the amount of TNFα in the supernatant was calculated by using a calibration curve. The TNFα production suppression ratio observed with no addition of LPS was defined to be 100%, the TNFα production suppression ratio observed with no addition of the test compound was defined to be 0%, and IC50 of the test compound was calculated by using the 4-parameter logistic model of the data analysis software XLfit (ID Business Solutions Ltd.).

[2] = target: human IRAK-4 (Homo sapiens (Human), UniProt Q9NWZ3); experiment: Measurement of human IRAK-4 inhibitory activity (TR-FRET, peptide substrate phosphorylation, 10 μM ATP); type: biochemical; settings: 1 nM IRAK-4, 10 μM ATP, 23° C., 30 minutes; average values
Description: For the measurement of the activity of the human IRAK-4 (Invitrogen, Cat. PV3362), phosphorylation of the IRAK-4 peptide substrate (biotin-KKKKRFSFKKSFKC) by the enzyme in the presence of 10 μM ATP (Sigma-Aldrich, Cat. A7699) was measured by the TR-FRET method. The enzymatic reaction was performed in a reaction buffer containing 50 mM HEPES (pH 7.2), 1 mM DTT, 0.1 mM Na3VO4, 5 mM MgCl2, 1 mM MnCl2, and 0.1% bovine serum albumin. For the measurement of the IRAK-4 inhibitory activity, a test compound was added to the reaction buffer containing 1 nM IRAK-4, 0.5 μM peptide substrate, and 10 μM ATP, and the mixture was incubated at 23° C. for 30 minutes. Then, a detection solution containing an antibody labeled with europium cryptate (0.3 μg/mL, the antibody was prepared by using the IRAK-4 peptide substrate as the antigen), streptavidin-XL665 (2 μg/mL, CisBio, Cat. 610SAXLB), 50 mM HEPES (pH 7.2), 0.1% BSA, 120 mM KF, and 66.7 mM EDTA (all the concentrations of the reagents are final concentrations) was added to terminate the reaction, and then the mixture was further incubated at 23° C. for 60 minutes. Fluorescence intensity was measured at wavelengths of 665 nm and 620 nm with a microplate reader, and the enzymatic activity was calculated as the ratio of fluorescence intensities at 665 nm and 620 nm (665 nm/620 nm).

human IRAK-4, sequence (Q9NWZ3 whole entry): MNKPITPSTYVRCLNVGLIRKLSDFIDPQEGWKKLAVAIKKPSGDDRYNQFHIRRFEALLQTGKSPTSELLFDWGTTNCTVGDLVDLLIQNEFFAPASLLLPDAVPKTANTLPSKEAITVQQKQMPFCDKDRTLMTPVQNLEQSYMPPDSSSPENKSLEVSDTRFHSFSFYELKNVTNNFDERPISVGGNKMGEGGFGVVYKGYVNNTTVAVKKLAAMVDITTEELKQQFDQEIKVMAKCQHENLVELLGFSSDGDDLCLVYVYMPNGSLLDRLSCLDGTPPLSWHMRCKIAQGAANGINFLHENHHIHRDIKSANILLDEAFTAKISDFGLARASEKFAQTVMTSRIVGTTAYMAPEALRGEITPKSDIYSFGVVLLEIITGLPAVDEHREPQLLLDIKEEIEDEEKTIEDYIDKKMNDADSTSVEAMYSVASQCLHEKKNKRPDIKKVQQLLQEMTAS

SMILES	IC50 ([1]; Homo sapiens, THP-1, 4 h)	IC50 [2]	IC50 ([1]; 4 hours)
COc1c(-c2cnc(CO[C@H]3CCC[C@@H]3O)nc2)ccc2nc(NC(=O)[C@H]3C[C@@](C)(O)C3)sc12 [c-02-05]	175 nM	4.64 nM	
CCCOCc1ncc(-c2ccc3nc(NC(=O)[C@H]4C[C@@H](N5CCN(C(=O)c6ccccn6)C[C@@H]5C)C4)sc3c2)cn1 [b-04-24]	95 nM	0.76 nM	
O=C(Nc1nc2ccc(-c3cnc(CO[C@H]4CCC[C@@H]4O)nc3)cc2s1)C1CC(N2CCOCC2C2CC2)C1 (stereo partly drawn) [b-02-68]	160 nM	2.18 nM	
O=C(Nc1nc2ccc(-c3cnc(CO[C@H]4CCC[C@@H]4O)nc3)c(OCCO)c2s1)C1CC1 [c-06-01, N-(6-(2-((((1S,2S)-2-Hydroxycyclopentyl)oxy)methyl)pyrimidin-5-yl)-7-(2-hydroxyethoxy)benzo[d]thiazol-2-yl)cyclopropanecarboxamide]	358 nM	5.45 nM	
O=C(Nc1nc2ccc(-c3cnc(CO[C@H]4CCC[C@@H]4O)nc3)cc2s1)C1CC(N2CCN(CC(F)(F)F)CC2)C1 (stereo partly drawn) [b-02-23]	166 nM	2.52 nM	
O=C(Nc1nc2ccc(-c3cnc(CO[C@H]4CCC[C@@H]4O)nc3)cc2s1)C1CC(N2CC[C@H](F)C2)C1 (stereo partly drawn) [b-02-02]	195 nM	2.79 nM	
O=C(Nc1nc2ccc(-c3cnc(CO[C@H]4CCC[C@@H]4O)nc3)cc2s1)C1CC(N[C@@H]2C[C@H]2C(F)(F)F)C1 (stereo partly drawn) [b-02-58]	133 nM	2.7 nM	
O=C(Nc1nc2ccc(-c3cnc(CO[C@H]4CCC[C@@H]4O)nc3)cc2s1)C1CC(NC2(C(F)F)CC2)C1 (stereo partly drawn) [b-02-56]	109 nM	1.76 nM	
O=C(Nc1nc2ccc(-c3cnc(CO[C@H]4CCC[C@@H]4O)nc3)c(Cl)c2s1)C1CC1 [a-01-11]	437 nM	7.89 nM	
O=C(Nc1nc2ccc(-c3cnc(COC4CCC4)nc3)cc2s1)C1CC1 [a-04-03]	355 nM	2.32 nM	
C[C@H]1CN(CC(F)(F)F)CCN1[C@H]1C[C@@H](C(=O)Nc2cc3cc(-c4cnc(CO[C@H]5CCC[C@@H]5O)nc4)ccn3n2)C1 [e-02-04]	116 nM	1.05 nM	
O=C(Nc1nc2ccc(-c3cnc(CO[C@H]4CCC[C@@H]4O)nc3)cc2s1)C1CC1 [a-01-01, N-(6-(2-((((1S,2S)-2-Hydroxycyclopentyl)oxy)methyl)pyrimidin-5-yl)benzo[d]thiazol-2-yl)cyclopropanecarboxamide]	121 nM	1.89 nM	
Cc1nc(C(=O)N2CCN([C@H]3C[C@@H](C(=O)Nc4nc5ccc(-c6cnc(CO[C@H]7CCC[C@@H]7O)nc6)cc5s4)C3)[C@@H](C)C2)co1 [b-04-36]	48 nM	0.9 nM	
CCCOCc1ncc(-c2ccn3nc(NC(=O)[C@H]4C[C@@H](N5CCN(C(=O)c6cccc(C)n6)C[C@@H]5C)C4)cc3c2)cn1 [e-02-18]	200 nM	1.84 nM	
COc1c(-c2cnc(CO[C@H]3CCC[C@H]3O)nc2)ccn2nc(NC(=O)C3CC3)cc12 [e-04-02]		1.07 nM	314 nM
C[C@H]1CN(C(=O)N2CCC2)CCN1[C@H]1C[C@@H](C(=O)Nc2nc3ccc(-c4cnc(CO[C@H]5CCC[C@@H]5O)nc4)cc3s2)C1 [b-05-09]	44 nM	2.13 nM	
O=C(Nc1nc2ccc(-c3cnc(CO[C@H]4CCC[C@@H]4O)nc3)cc2s1)C1CC(NC2CCC2)C1 (stereo partly drawn) [b-02-48]	143 nM	2.03 nM	
CC(C)[C@H]1COCCN1C1CC(C(=O)Nc2nc3ccc(-c4cnc(CO[C@H]5CCC[C@@H]5O)nc4)cc3s2)C1 (stereo partly drawn) [b-02-32]	41 nM	2.37 nM	
Cc1c(-c2cnc(CO[C@H]3CCC[C@@H]3O)nc2)ccc2nc(NC(=O)C3CC3)sc12 [c-07-01]	347 nM	6.48 nM	
COCC(=O)N1CCC2(CC1)CC(C(=O)Nc1nc3ccc(-c4cnc(CO[C@H]5CCC[C@@H]5O)nc4)cc3s1)C2 [d-03-02]	111 nM		
O=C(Nc1nc2ccc(-c3cnc(COC4CC(F)(F)C4)nc3)cc2s1)C1CC1 [a-04-04]	444 nM	2.32 nM	
CC1(C)CN(C2CC(C(=O)Nc3nc4ccc(-c5cnc(CO[C@H]6CCC[C@@H]6O)nc5)cc4s3)C2)CCO1 (stereo partly drawn) [b-02-18]	164 nM	2.92 nM	

SMILES	IC50 ([1]; Homo sapiens, THP-1, 4 h)	IC50 [2]	IC50 ([1]; 4 hours)
O=C(Nc1nc2ccc(-c3cnc(CO[C@H]4CCC[C@@H]4O)nc3)cc2s1)C1CC(N2CCCOCC2)C1 (stereo partly drawn) [b-02-03]	166 nM	2.53 nM	
COc1c(-c2cnc(CO[C@H]3CCC[C@@H]3O)nc2)ccc2nc(NC(=O)C3CC(OC(C)(C)C)C3)sc12 (stereo partly drawn) [c-02-07]	76 nM	1.56 nM	
O=C(Nc1nc2ccc(-c3cnc(CO[C@H]4CCC[C@@H]4O)nc3)cc2s1)C1CC2(CCN(CC(F)(F)F)CC2)C1 [d-03-08]	137 nM	1.28 nM	
CC(C)(C)OC(=O)N1CC2(CC(C(=O)Nc3nc4ccc(-c5cnc(CO[C@H]6CCC[C@@H]6O)nc5)cc4s3)C2)C1 [d-01-04]	178 nM	6.39 nM	
C[C@@H]1COCCN1C1CC(C(=O)Nc2nc3ccc(-c4cnc(CO[C@H]5CCC[C@@H]5O)nc4)cc3s2)C1 (stereo partly drawn) [b-02-05]	131 nM	2.12 nM	
O=C(Nc1nc2ccc(-c3cnc(CO[C@H]4CCC[C@@H]4O)nc3)cc2s1)C1CC(N2CCOCC23CC3)C1 (stereo partly drawn) [b-02-37]	94 nM	2.22 nM	
CN(C1CC(C(=O)Nc2nc3ccc(-c4cnc(CO[C@H]5CCC[C@@H]5O)nc4)cc3s2)C1)[C@@H]1C[C@H]1C(F)(F)F (stereo partly drawn) [b-03-07]	183 nM	5.26 nM	
O=C(Nc1nc2ccc(-c3cnc(CO[C@H]4CCC[C@@H]4O)nc3)cc2s1)[C@H]1C[C@@H](OCc2ccncc2)C1 [d-04-05]	145 nM	2.05 nM	
O=C(Nc1nc2ccc(-c3cnc(CO[C@H]4CCC[C@@H]4O)nc3)cc2s1)[C@H]1C[C@@H](OCC2CC2)C1 [d-04-04]	169 nM		
C[C@H]1CN(S(C)(=O)=O)CCN1[C@H]1C[C@@H](C(=O)Nc2nc3ccc(-c4cnc(CO[C@H]5CCC[C@@H]5O)nc4)cc3s2)C1 [b-05-08]	81 nM		
CN(C1CC(C(=O)Nc2nc3ccc(-c4cnc(CO[C@H]5CCC[C@@H]5O)nc4)cc3s2)C1)C1(C#N)CC1 (stereo partly drawn) [b-02-73]	113 nM		
CCNC(=O)N1CCN([C@H]2C[C@@H](C(=O)Nc3nc4ccc(-c5cnc(CO[C@H]6CCC[C@@H]6O)nc5)cc4s3)C2)[C@@H](C)C1 [b-06-01]	93 nM		
O=C(Nc1nc2ccc(-c3cnc(CO[C@H]4CCC[C@@H]4O)nc3)cc2s1)C1CC(N2CCCC3(COC3)C2)C1 (stereo partly drawn) [b-02-75]	186 nM		
COc1c(-c2cnc(CO[C@H]3CCC[C@@H]3O)nc2)ccc2nc(NC(=O)[C@H]3C[C@H]3C)sc12 [c-02-03]	229 nM		
CC(C)(C)OC1CC(C(=O)Nc2cc3cc(-c4cnc(CO[C@H]5CCC[C@@H]5O)nc4)ccn3n2)C1 (stereo partly drawn) [e-03-01, 3-(tert-Butoxy)-N-(5-(2-((((1S,2S)-2-hydroxycyclopentyl)oxy)methyl)pyrimidin-5-yl)pyrazolo[1,5-a]pyridin-2-yl)cyclobutane-1-carboxamide]	168 nM		
O=C(Nc1nc2ccc(-c3cnc(CO[C@H]4CCC[C@@H]4O)nc3)cc2s1)C1CC2(CCN(C(=O)c3ccccc3)CC2)C1 [d-03-04]	194 nM		
O=C(Nc1nc2ccc(-c3cnc(CO[C@H]4CCC[C@@H]4O)nc3)cc2s1)C1CC2(CCN(C(=O)C3CC3)CC2)C1 [d-03-03]	87 nM		
CC1(F)CN(C2CC(C(=O)Nc3nc4ccc(-c5cnc(CO[C@H]6CCC[C@@H]6O)nc5)cc4s3)C2)C1 (stereo partly drawn) [b-02-45]	200 nM		
CO[C@H]1C[C@@H](C(=O)Nc2nc3ccc(-c4cnc(CO[C@H]5CCC[C@@H]5O)nc4)cc3s2)C1 [a-01-06]	170 nM		
COc1c(-c2cnc(CO[C@H]3CCC[C@@H]3O)nc2)ccc2nc(NC(=O)[C@H]3C[C@@H]3C)sc12 [c-02-02]	186 nM		
O=C(Nc1nc2ccc(-c3cnc(CO[C@H]4CCC[C@@H]4O)nc3)cc2s1)C1CC(NC2CC(F)(F)C2)C1 (stereo partly drawn) [b-02-64]	164 nM		
